Reference: publication PMC12736270, “Application of Data-Centric Supervised Machine Learning to Predict Phenotypic Activity Against Clinically Relevant Stages of Trypanosoma cruzi” (Pharmaceutics, 2025)
Entries after “also recorded” stand apart in the source; their conditions may differ. Where two headings read alike, the source gives them in different places.

How the values were obtained:
[1] = system: culture-derived trypomastigotes of the T. cruzi Y strain; assay: Trypanocidal effect on Y strain trypomastigotes (resazurin viability); type: cell-based, Trypanosoma cruzi; settings: for Activity on Y Trypomastigotes: tested at 10 µM and 50 µM, 24 h
Protocol: (§1) For the evaluation of the trypanocidal effect of selected drugs on trypomastigotes, assays were performed using culture-derived trypomastigotes of the T. cruzi Y and K98 strains. Parasites were incubated in 96-well plates at a density ranging from 5 × 10^5 to 1 × 10^6 trypomastigotes per well, in a final volume of 100 μL of MEM supplemented with 5% serum. Test compounds were previously dissolved in dimethyl sulfoxide (DMSO) and added to the wells so that the final DMSO concentration was 1%. Wells containing 1% DMSO were used as vehicle controls, and 10 μM BZN served as a positive control. In the case of the Y strain, after 24 h of incubation at 37 °C, 10 μL of resazurin solution was added to reach a final concentration of 0.01 mg/mL. Plates were incubated for approximately 4 h at 37 °C to allow fluorescence development, and readings were performed in a microplate reader with excitation and emission wavelengths of 530 nm and 590 nm, respectively. To calculate EC50 in trypomastigotes, six points were used in a concentration range of 5 to 100 μM. At least three independent assays were performed. In the case of the K98 strain, after 24 h of incubation, motile parasites were counted in a hemocytometer chamber under a light microscope. Controls consisted of RPMI-1640 supplemented with 5% FBS as well as RPMI-1640 with 0.1% DMSO. At least three independent assays were performed.

[2] = system: trypomastigotes of the K98 strain (TcI); assay: Trypanocidal effect on K98 strain trypomastigotes (motile parasite count); type: cell-based, Trypanosoma cruzi; settings: 24 h of incubation
Protocol: as §1

[3] = system: intracellular amastigotes of the Tulahuen strain; assay: Intracellular amastigote assay, Tulahuen β-galactosidase strain in Vero cells; type: cell-based, Trypanosoma cruzi; settings: for EC50: Trypanosoma cruzi, TULAHUEN, read-out: Activity on Tul Amastigotes; for activity on intracellular amastigotes: Tulahuen strain, infected Vero cells
Protocol: To evaluate the trypanocidal effect of the selected compounds on intracellular amastigotes, the drug screening method reported by Buckner et al. was adapted. Vero cells were seeded at 1 × 10^4 per well on a 96-well culture plate in 100 μL MEM-5% FBS. Tulahuen trypomastigotes overexpressing the E. coli β-galactosidase protein (LacZ clone C4 strain—ATCC® PRA-330™, ATCC, Manassas, VA, USA) were used to infect Vero cell monolayers (MOI: 10:1) in triplicate. After 2 h incubation at 37 °C, the culture media were removed and non-internalized parasites were eliminated by washing each well with at least 10 vol of sterile PBS 1X, after which fresh MEM-5% FBS was added. After 16–18 h, the culture medium was replaced with culture medium bearing the compounds to be tested at the desired concentration. Test compounds were prepared in DMSO, ensuring a final DMSO concentration of 1%. Cells treated with 1% DMSO were used as vehicle controls. To determine the IC50, each drug was evaluated in at least six different concentrations (usually 0.78, 1.56, 3.13, 6.25, 12.5, and 50.0 μM). The plate was further incubated for another 72 h at 37 °C, after which the culture media were removed and cells and intracellular amastigotes were lysed in 100 μL lysis buffer (25 mM Tris pH 8, 2 mM EDTA, 2 mM DTT, 1% Triton X-100, 10% glycerol in ultrapure MQ water) for 10 min at 37 °C. Then, 100 μL 2X reaction buffer (200 mM sodium phosphate, pH 8, 2 mM MgCl2, 100 mM 2-mercaptoethanol, and 1.33 mg.mL^−1 o-nitrophenyl-β-galactoside (ONPG)) was added, and the reaction was allowed to proceed until a yellow color developed (1–2 h at 37 °C). The absorbance at 420 nm was measured in a Synergy HTX multi-mode microplate reader (Biotek Instruments, Winooski, VT, USA) and normalized to the value obtained for the infection in the absence of inhibitors. IC50 for BZN was also evaluated following this method (concentrations evaluated: 0.10, 0.20, 0.39, 0.78, 1.56, 3.13, 6.25, 12.5, and 50.0 μM). Uninfected cells were included as blanks. Each compound was tested in at least two independent experiments.

Vero cells = assay: Cytotoxicity against Vero cells; type: cell-based; settings: for CC50 Vero Cells: Not toxic = no toxic effect observed up to 50 µM
[4] = parameters: method as in PMID 37061109; settings: phase III clinical trial, non-alcoholic steatohepatitis; cited from earlier work
[5] = Cytotoxicity against Vero cells; type: cell-based; settings: African green monkey, Vero cells; Not toxic = no toxic effect observed up to 50 µM
[6] = intracellular amastigotes infecting Vero cells, 72 h
[7] = * not reliable because of the simultaneous toxic effect against Vero cells

Compound	Activity on Y Trypomastigotes [1]	EC50 [3, 6] [µM]	activity on intracellular amastigotes [3]	cytotoxic effects on Vero cells (Vero cells)	CC50 Vero Cells (Vero cells)	also measured
C=CC[C@]1(O)CC[C@H]2[C@@H]3CCC4=CC(=O)CCC4=C3C=C[C@@]21C [Altrenogest]	did not exhibit detectable activity; also recorded: Not active					EC50 on K98 Trypomastigotes [2]: Not active
CCCCOCCOc1ccc(-c2ccc3c(c2)/C=C(/C(=O)Nc2ccc([S@@+]([O-])Cc4cncn4CCC)cc2)CCCN3CC(C)C)cc1 [Cenicriviroc]		4.76	active	did not present cytotoxic activity	Not toxic	selectivity index ([3]; intracellular amastigotes versus Vero cells): greater than 10; primary efficacy endpoints for fibrosis [4]: did not meet its primary efficacy endpoints
C[C@]12CCC3=C4CCC(=O)C=C4CC[C@H]3[C@@H]1CC[C@@]2(O)CC#N [Dienogest]	did not exhibit detectable activity; also recorded: Not active					EC50 on K98 Trypomastigotes [2]: Not active
Cc1ccc(-n2nc(C(C)(C)C)cc2NC(=O)Nc2ccc(OCCN3CCOCC3)c3ccccc23)cc1 [Doramapimod]		11	active	did not present cytotoxic activity	Not toxic	
COCCNCc1ccc(-c2cc3nccc(Oc4ccc(NC(=S)NC(=O)Cc5ccc(F)cc5)cc4F)c3s2)nc1 [Glesatinib]				cytotoxic effects		EC50 [3, 7]: 6.49 µM; CC50 [5]: ~25 µM
CC(F)(F)c1cc(F)ccc1-c1sc2cc(O)ccc2c1Oc1ccc(/C=C/C(=O)O)cc1 [LSZ-102]		19.4	active	did not present cytotoxic activity	Not toxic	
CC#C[C@]1(O)CC[C@H]2[C@@H]3CCC4=CC(=O)CCC4=C3[C@@H](c3ccc(N(C)C)cc3)C[C@@]21C [Mifepristone]	Active					reduction in parasite viability ([1]; 50 µM, after 24 h of incubation, Y strain): 69.5%; EC50 ([2]; Trypanosoma cruzi): 17.9 µM
CC1(C)CCC(c2ccc(Cl)cc2)=C(CN2CCN(c3ccc(C(=O)NS(=O)(=O)c4ccc(N[C@H](CCN5CCOCC5)CSc5ccccc5)c(S(=O)(=O)C(F)(F)F)c4)cc3)CC2)C1 [Navitoclax]				cytotoxic effects		EC50 [3, 7]: 2.14 µM; CC50 [5]: 6.03 µM
